Counter-ions that a name gives are not always drawn. Like-named read-outs stand apart in the source and are kept apart here.
Experiments:
TEC = target: T1, TEC (Homo sapiens, UniProt P42680); assay: KINOMEscan competition binding assay, TEC; settings: read-out: KINOMEscan percentage of control, TEC
T1 sequence (P42680 1-631): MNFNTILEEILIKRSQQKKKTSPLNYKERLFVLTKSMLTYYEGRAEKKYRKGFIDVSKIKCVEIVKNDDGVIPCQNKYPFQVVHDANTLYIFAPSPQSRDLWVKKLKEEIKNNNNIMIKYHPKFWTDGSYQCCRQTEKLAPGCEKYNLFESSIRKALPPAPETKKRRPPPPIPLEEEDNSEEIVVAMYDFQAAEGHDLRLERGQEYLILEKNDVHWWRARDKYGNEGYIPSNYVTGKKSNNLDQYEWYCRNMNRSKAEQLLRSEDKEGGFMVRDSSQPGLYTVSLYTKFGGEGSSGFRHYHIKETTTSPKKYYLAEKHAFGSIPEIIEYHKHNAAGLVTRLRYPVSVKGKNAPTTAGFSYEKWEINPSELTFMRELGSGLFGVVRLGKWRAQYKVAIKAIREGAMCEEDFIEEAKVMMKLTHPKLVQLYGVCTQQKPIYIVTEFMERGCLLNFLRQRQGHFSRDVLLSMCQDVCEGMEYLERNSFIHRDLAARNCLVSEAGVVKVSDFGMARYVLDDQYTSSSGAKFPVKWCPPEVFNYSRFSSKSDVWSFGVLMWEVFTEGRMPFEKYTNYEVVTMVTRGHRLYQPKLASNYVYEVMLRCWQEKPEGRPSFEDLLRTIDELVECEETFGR

JAK3 = target: T2, JAK3 (Homo sapiens, UniProt P52333); assay: KINOMEscan competition binding assay, JAK3; settings: read-out: KINOMEscan percentage of control, JAK3
T2 construct: purchased DiscoverX (KINOMEscan service)
T2 sequence (P52333 811-1124 limits assumed): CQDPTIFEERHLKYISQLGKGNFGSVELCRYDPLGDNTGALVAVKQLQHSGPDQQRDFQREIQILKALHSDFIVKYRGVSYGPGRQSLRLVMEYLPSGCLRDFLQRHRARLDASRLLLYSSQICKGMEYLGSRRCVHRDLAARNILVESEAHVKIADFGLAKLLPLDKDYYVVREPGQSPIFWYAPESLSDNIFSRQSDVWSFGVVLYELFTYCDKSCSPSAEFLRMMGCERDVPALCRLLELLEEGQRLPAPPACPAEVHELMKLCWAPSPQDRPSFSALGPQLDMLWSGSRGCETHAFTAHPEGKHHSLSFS

MKK7 = target: T3, MKK7 (Homo sapiens, UniProt O14733); assay: KINOMEscan competition binding assay, MKK7; settings: read-out: KINOMEscan percentage of control, MKK7
T3 construct: purchased DiscoverX (KINOMEscan service)
T3 sequence (O14733 1-419): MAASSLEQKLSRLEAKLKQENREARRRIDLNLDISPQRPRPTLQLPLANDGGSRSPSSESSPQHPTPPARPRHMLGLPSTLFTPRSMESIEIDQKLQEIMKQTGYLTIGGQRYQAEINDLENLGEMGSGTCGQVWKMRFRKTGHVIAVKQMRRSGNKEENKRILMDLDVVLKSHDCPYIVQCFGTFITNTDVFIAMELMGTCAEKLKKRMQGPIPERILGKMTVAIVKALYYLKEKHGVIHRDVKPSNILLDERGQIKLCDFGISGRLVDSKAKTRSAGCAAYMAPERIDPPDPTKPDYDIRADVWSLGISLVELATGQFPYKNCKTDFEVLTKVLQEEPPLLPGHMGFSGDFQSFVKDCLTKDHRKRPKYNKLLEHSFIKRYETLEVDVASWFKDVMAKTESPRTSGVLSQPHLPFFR

ITK = target: T4, ITK (Homo sapiens, UniProt Q08881); assay: KINOMEscan competition binding assay, ITK; set-up: purchased DiscoverX (KINOMEscan service); settings: read-out: KINOMEscan percentage of control, ITK
T4 sequence (Q08881 1-620): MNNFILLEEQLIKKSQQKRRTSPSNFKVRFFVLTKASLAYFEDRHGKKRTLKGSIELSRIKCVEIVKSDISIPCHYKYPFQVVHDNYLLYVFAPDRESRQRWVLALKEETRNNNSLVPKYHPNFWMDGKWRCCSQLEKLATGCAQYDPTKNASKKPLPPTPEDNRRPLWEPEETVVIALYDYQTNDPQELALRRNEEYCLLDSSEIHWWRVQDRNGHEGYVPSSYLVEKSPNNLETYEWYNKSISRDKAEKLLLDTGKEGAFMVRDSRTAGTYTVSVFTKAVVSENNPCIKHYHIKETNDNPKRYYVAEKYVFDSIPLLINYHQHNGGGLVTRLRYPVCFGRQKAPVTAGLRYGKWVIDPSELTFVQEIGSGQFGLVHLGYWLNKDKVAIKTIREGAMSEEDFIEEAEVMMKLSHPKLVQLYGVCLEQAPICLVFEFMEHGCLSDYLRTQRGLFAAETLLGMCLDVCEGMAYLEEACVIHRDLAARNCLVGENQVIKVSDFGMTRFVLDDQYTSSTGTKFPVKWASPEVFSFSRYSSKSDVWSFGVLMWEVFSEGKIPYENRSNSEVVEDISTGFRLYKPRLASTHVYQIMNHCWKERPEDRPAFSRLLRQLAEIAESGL

BLK = BLK (Homo sapiens, UniProt P51451); assay: KINOMEscan competition binding assay, BLK; settings: read-out: KINOMEscan percentage of control, BLK
Sequence of BLK (P51451 whole entry): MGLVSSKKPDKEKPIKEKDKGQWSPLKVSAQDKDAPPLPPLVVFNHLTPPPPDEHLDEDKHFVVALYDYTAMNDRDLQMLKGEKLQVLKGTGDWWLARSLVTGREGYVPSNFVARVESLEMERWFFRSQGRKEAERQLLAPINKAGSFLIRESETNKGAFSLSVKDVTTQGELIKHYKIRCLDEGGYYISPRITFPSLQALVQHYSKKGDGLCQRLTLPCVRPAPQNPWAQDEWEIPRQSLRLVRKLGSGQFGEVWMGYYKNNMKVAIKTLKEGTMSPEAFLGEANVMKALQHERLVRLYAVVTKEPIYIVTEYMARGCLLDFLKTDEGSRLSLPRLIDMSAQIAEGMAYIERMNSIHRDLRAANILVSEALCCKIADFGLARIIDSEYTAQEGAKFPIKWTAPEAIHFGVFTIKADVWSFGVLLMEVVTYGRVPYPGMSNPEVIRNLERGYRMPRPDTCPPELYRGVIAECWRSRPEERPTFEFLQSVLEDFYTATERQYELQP

BTK = BTK (Homo sapiens, UniProt Q06187); assay: BTK degradation in NAMALWA cells (immunoblot); format: cell-based; set-up: host or cells: NAMALWA; settings: NAMALWA cells; for DC50: concentration needed to degrade 50% of the total pool of BTK; for Max: maximal BTK degradation, at 1.0 μM
Sequence of BTK (Q06187 whole entry): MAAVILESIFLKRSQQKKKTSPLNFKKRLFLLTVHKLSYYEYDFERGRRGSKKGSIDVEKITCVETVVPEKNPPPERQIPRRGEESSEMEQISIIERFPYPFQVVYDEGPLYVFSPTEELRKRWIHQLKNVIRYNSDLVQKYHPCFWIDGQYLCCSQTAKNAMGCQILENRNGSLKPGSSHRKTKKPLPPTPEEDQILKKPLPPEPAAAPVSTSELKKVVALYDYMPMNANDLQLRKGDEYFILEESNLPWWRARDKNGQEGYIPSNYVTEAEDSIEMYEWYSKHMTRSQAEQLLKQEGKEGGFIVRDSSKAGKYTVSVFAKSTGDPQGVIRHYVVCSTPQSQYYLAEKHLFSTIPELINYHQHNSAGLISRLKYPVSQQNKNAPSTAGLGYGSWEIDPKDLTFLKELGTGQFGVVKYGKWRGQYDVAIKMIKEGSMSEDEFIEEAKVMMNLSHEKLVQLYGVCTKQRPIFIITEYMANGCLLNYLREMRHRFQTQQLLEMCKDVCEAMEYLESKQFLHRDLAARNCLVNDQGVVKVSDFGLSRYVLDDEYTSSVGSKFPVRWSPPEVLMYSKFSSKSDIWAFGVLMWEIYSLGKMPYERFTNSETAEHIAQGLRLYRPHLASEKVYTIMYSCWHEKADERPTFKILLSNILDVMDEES
Experimental: NAMALWA and Jurkat cell lines were purchased from ATCC and cultured according to supplier guidelines at 37° C. […] Wild-type and C481S BTK XLA cell lines were cultured as previously described (39). Written, informed consent was obtained prior to the collection of cells from CLL patients using the IWCLL2008 criteria. Isolation of mononuclear cells from peripheral blood was prepared using density gradient centrifugation. B-cells were then negatively selected ([…] Technologies). […] They were maintained at 37° C. in 5% CO2.
Lysates were spun at 15,000×g for 10 min at 4° C. and supernatant was quantified for total protein content using the Pierce BCA Protein Assay (Thermo Fisher Scientific).
Either anti-rabbit or anti-mouse HRP-conjugated secondary antibodies (Pierce) were incubated with the membranes for 1 h at room temperature at 1:10,000 dilutions in 5% non-fat milk in IX TBS-T. Imaging was performed using the ECL Prime chemiluminescent western blot detection reagents (Amersham) followed by visualization with the Bio-Rad ChemiDoc imaging instrument. All western blots were subsequently processed and quantified using the accompanying Bio-Rad Image Lab software. […] All antibodies were used at 1:1,000 dilutions in 5% non-fat milk in 1×TBS-Tween (TBS-T) or Blotto blocker (Thermo Scientific) unless otherwise noted in supplier specifications.

HER3 = target: T5, HER3 (Homo sapiens, UniProt P21860); assay: HER3/ERBB3 degradation (western blot, OVCAR8 cells); format: cell-based
T5 construct: endogenous in cells; host or cells: OVCAR8
T5 sequence (P21860 20-1342): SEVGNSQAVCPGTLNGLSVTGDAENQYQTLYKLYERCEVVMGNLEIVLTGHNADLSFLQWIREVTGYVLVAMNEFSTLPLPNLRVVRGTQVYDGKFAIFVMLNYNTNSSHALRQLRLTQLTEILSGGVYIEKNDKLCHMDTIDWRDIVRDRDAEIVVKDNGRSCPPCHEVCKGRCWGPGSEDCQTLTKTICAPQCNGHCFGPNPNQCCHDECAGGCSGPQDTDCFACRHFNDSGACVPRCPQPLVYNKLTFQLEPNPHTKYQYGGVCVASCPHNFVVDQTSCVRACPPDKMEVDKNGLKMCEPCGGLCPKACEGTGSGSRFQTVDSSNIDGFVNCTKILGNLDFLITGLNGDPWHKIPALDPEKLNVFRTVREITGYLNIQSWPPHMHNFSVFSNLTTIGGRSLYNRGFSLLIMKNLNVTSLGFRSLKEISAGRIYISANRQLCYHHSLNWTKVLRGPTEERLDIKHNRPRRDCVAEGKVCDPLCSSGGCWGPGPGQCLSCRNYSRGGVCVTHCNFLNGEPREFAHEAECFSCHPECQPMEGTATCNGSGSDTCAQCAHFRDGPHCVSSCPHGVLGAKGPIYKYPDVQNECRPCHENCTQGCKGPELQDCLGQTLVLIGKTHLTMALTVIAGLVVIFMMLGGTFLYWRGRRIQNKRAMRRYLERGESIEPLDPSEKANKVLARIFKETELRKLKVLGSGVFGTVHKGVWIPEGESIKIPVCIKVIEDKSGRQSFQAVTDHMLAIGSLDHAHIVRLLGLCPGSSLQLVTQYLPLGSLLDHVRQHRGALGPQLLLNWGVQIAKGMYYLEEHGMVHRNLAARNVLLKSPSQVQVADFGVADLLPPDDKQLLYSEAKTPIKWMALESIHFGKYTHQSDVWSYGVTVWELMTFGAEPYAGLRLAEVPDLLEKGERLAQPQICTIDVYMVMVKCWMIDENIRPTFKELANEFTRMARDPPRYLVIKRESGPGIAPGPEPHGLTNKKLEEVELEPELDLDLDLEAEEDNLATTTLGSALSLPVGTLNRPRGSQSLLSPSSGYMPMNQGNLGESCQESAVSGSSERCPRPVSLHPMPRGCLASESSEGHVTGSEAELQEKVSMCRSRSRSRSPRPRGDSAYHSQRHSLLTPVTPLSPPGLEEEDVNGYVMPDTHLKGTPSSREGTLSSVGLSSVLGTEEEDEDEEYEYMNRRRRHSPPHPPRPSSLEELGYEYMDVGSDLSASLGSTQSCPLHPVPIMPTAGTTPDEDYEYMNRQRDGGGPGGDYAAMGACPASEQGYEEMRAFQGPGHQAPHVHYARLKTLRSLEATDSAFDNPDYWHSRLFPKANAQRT
Experimental: FIG. 10 illustrates a Western blot of Compound 102-related degradation of ERBB3.
In various embodiments, treatment with PROTAC was performed in one of two ways: 1) For experiments involving >16 h exposure to compound, a 1000× stock was added to cells followed by gentle agitation; 2) For shorter treatments, a 2× stock was added to an equal volume of cells to ensure uniform drug exposure. For immortalized cell lines, 2×10^6 cells per treatment condition were collected and washed once with ice cold PBS (IX), followed by lysis in buffer containing 20 mM Tris [pH 8.0], 0.25% sodium deoxycholate, 1% Triton X-100, supplemented with protease (Roche) and phosphatase inhibitors (10 mM NaF, 2 mM Na3VO4, 10 mM β-glycerophosphate, 10 mM Na-pyrophosphate). Lysates were spun at 15,000×g for 10 min at 4° C. and supernatant was quantified for total protein content using the Pierce BCA Protein Assay (Thermo Fisher Scientific). 30 μg of protein was loaded onto 12% SDS-PAGE gels or 4-15% Mini-PROTEAN TGX precast gradient gels (Bio-Rad), transferred onto nitrocellulose membranes, and probed with the specified primary antibodies overnight with rocking at 4° C. in 1×TBS-T containing 5% non-fat milk.
Either anti-rabbit or anti-mouse HRP-conjugated secondary antibodies (Pierce) were incubated with the membranes for 1 h at room temperature at 1:10,000 dilutions in 5% non-fat milk in IX TBS-T. Imaging was performed using the ECL Prime chemiluminescent western blot detection reagents (Amersham) followed by visualization with the Bio-Rad ChemiDoc imaging instrument. All western blots were subsequently processed and quantified using the accompanying Bio-Rad Image Lab software. Primary antibodies used were: Anti-actin antibody (Cat. #MA 1-744) purchased from ThermoFisher Scientific; anti-BTK (Cat. #8547), anti-pBTK (Y223, Cat. #5082), anti-ITK (Cat. #2380), anti-GAPDH (Cat. #5179), anti-IKZF1 (Cat. #9034), and anti-IKZF3 (Cat. #15103) antibodies purchased from Cell Signaling Technology. All antibodies were used at 1:1,000 dilutions in 5% non-fat milk in 1×TBS-Tween (TBS-T) or Blotto blocker (Thermo Scientific) unless otherwise noted in supplier specifications.

C481S BTK = C481S BTK (Homo sapiens, UniProt Q06187, C481S); assay: In vitro kinase inhibition, recombinant C481S BTK, 10 μM ATP
Sequence of C481S BTK (Q06187 whole entry C481S): as the sequence (Q06187 whole entry) above, with C481S counted along it

## C=CC(=O)N1CCC[C@@H](n2nc(-c3ccc(Oc4ccccc4)cc3)c3c(N)ncnc32)C1 [ibrutinib, reference compound]
TEC
  remaining binding at 1 µM: 1.9%
JAK3
  remaining binding at 1 µM: < 10%
MKK7
  remaining binding at 1 µM: < 10%
ITK
  remaining binding at 1 µM: < 10%
BLK
  remaining binding at 1 µM: 0.1%

## Cc1ncsc1-c1ccc(CNC(=O)[C@@H]2C[C@@H](O)CN2C(=O)[C@@H](NC(=O)COCCOCCOCCOCCCCN2CCC(n3nc(-c4ccc(Oc5ccccc5)cc4)c4c(N)ncnc43)CC2)C(C)(C)C)cc1 [Compound 113, (2S,4R)-1-((S)-19-(4-(4-amino-3-(4-phenoxyphenyl)-1H-pyrazolo[3,4-d]pyrimidin-1-yl)piperidin-1-yl)-2-tert-butyl-4-oxo-6,9,12,15-tetraoxa-3-azanonadecane)-4-hydroxy-N-(4-(4-methylthiazol-5-yl)benzyl)pyrrolidine-2-carboxamide]
BTK; read-out: DC50
  DC50: 124 nM
BTK
  Max: 60%
HER3
  HER3 Degradation: No

## Nc1ncnc2c1c(-c1ccc(Oc3ccccc3)cc1)nn2C1CCNCC1 [compound 1, 3-(4-phenoxyphenyl)-1-(piperidin-4-yl)-1H-pyrazolo[3,4-d]pyrimidin-4-amine hydrochloride, reference compound]
C481S BTK
  inhibition potency against C481S mutant BTK: retained inhibition potency

## C=CC(=O)Nc1cc(-c2nn(C3CCN(CCCOCCCOCCC(=O)Nc4cccc5c4C(=O)N(C4CCC(=O)NC4=O)C5=O)CC3)c3ncnc(N)c23)ccc1Oc1ccccc1 (stereo not drawn) [Compound 121, N-(5-(4-amino-1-(1-(3-(3-(3-(2-(2,6-dioxopiperidin-3-yl)-1,3-dioxoisoindolin-4-ylamino)-3-oxopropoxy)propoxy)propyl)piperidin-4-yl)-1H-pyrazolo[3,4-d]pyrimidin-3-yl)-2-phenoxyphenyl)acrylamide]
BTK
  DC50: No Degradation
HER3
  HER3 Degradation: No

## Cc1ncsc1-c1ccc(CNC(=O)[C@@H]2C[C@@H](O)CN2C(=O)[C@@H](NC(=O)COCCOCCOCCOCCOCCCCCCN2CCC(n3nc(-c4ccc(Oc5ccccc5)cc4)c4c(N)ncnc43)CC2)C(C)(C)C)cc1 [Compound 118, (2S,4R)-1-((S)-25-(4-(4-amino-3-(4-phenoxyphenyl)-1H-pyrazolo[3,4-d]pyrimidin-1-yl)piperidin-1-yl)-2,2-dimethyl-5-oxo-7,10,13,16,19-pentaoxa-4-azapentacosanecarbonyl)-4-hydroxy-N-(4-(4-methylthiazol-5-yl)benzyl)pyrrolidine-2-carboxamide]
BTK; read-out: DC50
  DC50: 231 nM
BTK
  Max: 40%
HER3
  HER3 Degradation: No

## Cc1ncsc1-c1ccc(CNC(=O)[C@@H]2C[C@@H](O)CN2C(=O)[C@@H](NC(=O)COCCOCCOCCCCCCN2CCC(n3nc(-c4ccc(Oc5ccccc5)cc4)c4c(N)ncnc43)CC2)C(C)(C)C)cc1 [Compound 110, (2S,4R)-1-((S)-19-(4-(4-amino-3-(4-phenoxyphenyl)-1H-pyrazolo[3,4-d]pyrimidin-1-yl)piperidin-1-yl)-2,2-dimethyl-5-oxo-7,10,13-trioxa-4-azanonadecanecarbonyl)-4-hydroxy-N-(4-(4-methylthiazol-5-yl)benzyl)pyrrolidine-2-carboxamide]
BTK
  DC50: No Degradation
HER3
  HER3 Degradation: No

## Cc1ncsc1-c1ccc(CNC(=O)[C@@H]2C[C@@H](O)CN2C(=O)[C@@H](NC(=O)CCCCCOCCOCCOCCCCCCN2CCC(n3nc(-c4ccc(Oc5ccccc5)cc4)c4c(N)ncnc43)CC2)C(C)(C)C)cc1 [Compound 116, (2S,4R)-1-((S)-23-(4-(4-amino-3-(4-phenoxyphenyl)-1H-pyrazolo[3,4-d]pyrimidin-1-yl)piperidin-1-yl)-2,2-dimethyl-5-oxo-11,14,17-trioxa-4-azatricosanecarbonyl)-4-hydroxy-N-(4-(4-methylthiazol-5-yl)benzyl)pyrrolidine-2-carboxamide]
BTK
  DC50: No Degradation
HER3
  HER3 Degradation: No
